Laboratory results reported in US8415469B2, “Compounds and methods for kinase modulation, and indications therefor” (Plexxikon Inc., priority 2005, dated 2013).

Tests used:
Type in all cases: biochemical
B-Raf = biological target: T1, B-Raf (Homo sapiens, UniProt P15056); test: AlphaScreen kinase assay, B-Raf; settings: read-out: IC50, activity toward kinase B-Raf
T1 construct: purchased Upstate Biotechnology

Kit = biological target: T2, Kit (Homo sapiens, UniProt P10721); test: AlphaScreen kinase assay, Kit; settings: read-out: IC50, activity toward kinase Kit
T2 construct: P1332.N6 BI PTP KIT M552-K948-X COD; His6 (N); made in house; host or cells: E. coli (PTP1B co-expressed)

Jnk1 = biological target: T3, Jnk1 (Homo sapiens, UniProt P45983); test: AlphaScreen kinase assay, Jnk1; settings: read-out: IC50, activity toward kinase Jnk1
T3 construct: purchased Upstate Biotechnology

Flt1 = biological target: T4, Flt1 (Homo sapiens, UniProt P17948); test: AlphaScreen kinase assay, Flt1; settings: read-out: IC50, activity toward kinase Flt1
T4 construct: P1826.pETN6 BI-PTP FLT1 M799-D1165-X WT; His6 (N); made in house; host or cells: E. coli (PTP1B co-expressed)
T4 sequence (P17948 with tags, fused parts or gaps): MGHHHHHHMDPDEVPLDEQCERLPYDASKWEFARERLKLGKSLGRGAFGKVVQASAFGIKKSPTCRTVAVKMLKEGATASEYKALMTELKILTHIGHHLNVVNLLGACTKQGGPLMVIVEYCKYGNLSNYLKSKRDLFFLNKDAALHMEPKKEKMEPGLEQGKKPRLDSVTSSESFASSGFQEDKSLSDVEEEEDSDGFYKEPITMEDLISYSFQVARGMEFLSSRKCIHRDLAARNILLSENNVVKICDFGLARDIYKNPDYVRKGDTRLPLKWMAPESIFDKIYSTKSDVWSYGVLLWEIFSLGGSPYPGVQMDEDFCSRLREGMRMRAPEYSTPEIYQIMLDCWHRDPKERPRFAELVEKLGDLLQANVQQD

Jnk3 = biological target: T5, Jnk3 (Homo sapiens, UniProt P53779); test: AlphaScreen kinase assay, Jnk3; settings: read-out: IC50, activity toward kinase Jnk3
T5 construct: purchased Upstate Biotechnology

Jnk2 = biological target: T6, Jnk2 (Homo sapiens, UniProt P45984); test: AlphaScreen kinase assay, Jnk2; settings: read-out: IC50, activity toward kinase Jnk2
T6 construct: purchased Roche Protein Expression Group (Indianapolis, IN)
Procedure, shortened: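 Biotinylated peptide substrate phosphorylation detected by AlphaScreen with phospho-specific antibody acceptor beads and streptavidin donor beads. Compounds tested as 8-point 1:3 serial dilutions from 20 mM DMSO stocks.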

B-Raf V600E = biological target: T7, B-Raf V600E (Homo sapiens, UniProt P15056, V600E); test: AlphaScreen kinase assay, B-Raf V600E; settings: read-out: IC50, activity toward kinase B-Raf V600E
T7 construct: P4254. pFastBacBD-CDC37 BRAF D437-K722-X, V600E; His6 with pFastBac HT leader (TEV site) (N); made in house; host or cells: Sf9 (baculovirus; chaperone CDC37 co-expressed)

FGFR1 = biological target: T8, FGFR1 (Homo sapiens, UniProt P11362, C488A/C584S); test: AlphaScreen kinase assay, FGFR1; settings: read-out: IC50, activity toward kinase FGFR
T8 construct: P1351.pET N6 BI-PTP FGFR A458-E765-X C488A, C584S; made in house; host or cells: E. coli (PTP1B co-expressed)

Fms = biological target: T9, Fms (Homo sapiens, UniProt P07333); test: AlphaScreen kinase assay, Fms; settings: read-out: IC50, activity toward kinase Fms
T9 construct: purchased Upstate Biotechnology

Measured: IC50

T9 sequence (P07333 20-972): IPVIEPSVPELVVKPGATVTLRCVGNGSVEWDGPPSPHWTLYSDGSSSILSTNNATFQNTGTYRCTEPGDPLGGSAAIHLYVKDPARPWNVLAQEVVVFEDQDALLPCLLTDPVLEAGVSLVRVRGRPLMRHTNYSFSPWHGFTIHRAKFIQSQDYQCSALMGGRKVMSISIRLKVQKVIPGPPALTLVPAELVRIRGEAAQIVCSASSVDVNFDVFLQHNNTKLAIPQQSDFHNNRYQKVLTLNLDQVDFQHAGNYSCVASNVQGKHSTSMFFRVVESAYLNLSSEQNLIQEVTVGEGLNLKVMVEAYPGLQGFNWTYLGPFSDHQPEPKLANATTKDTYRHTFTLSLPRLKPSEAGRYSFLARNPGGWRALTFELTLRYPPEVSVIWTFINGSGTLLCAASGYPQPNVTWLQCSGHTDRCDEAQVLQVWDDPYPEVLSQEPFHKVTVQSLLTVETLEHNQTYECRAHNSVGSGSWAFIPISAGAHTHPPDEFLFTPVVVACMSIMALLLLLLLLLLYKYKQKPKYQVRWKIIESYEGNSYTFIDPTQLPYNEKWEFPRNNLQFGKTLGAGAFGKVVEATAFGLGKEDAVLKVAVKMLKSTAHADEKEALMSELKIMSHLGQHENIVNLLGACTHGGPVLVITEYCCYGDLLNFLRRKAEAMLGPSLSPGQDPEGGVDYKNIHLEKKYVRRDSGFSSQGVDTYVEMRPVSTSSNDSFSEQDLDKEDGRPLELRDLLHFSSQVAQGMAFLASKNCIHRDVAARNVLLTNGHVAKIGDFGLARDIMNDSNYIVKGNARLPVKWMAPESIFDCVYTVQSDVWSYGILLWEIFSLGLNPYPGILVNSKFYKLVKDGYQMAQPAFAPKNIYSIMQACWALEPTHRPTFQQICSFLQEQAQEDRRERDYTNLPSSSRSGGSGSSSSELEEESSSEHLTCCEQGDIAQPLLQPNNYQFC
T1 sequence (P15056 whole entry): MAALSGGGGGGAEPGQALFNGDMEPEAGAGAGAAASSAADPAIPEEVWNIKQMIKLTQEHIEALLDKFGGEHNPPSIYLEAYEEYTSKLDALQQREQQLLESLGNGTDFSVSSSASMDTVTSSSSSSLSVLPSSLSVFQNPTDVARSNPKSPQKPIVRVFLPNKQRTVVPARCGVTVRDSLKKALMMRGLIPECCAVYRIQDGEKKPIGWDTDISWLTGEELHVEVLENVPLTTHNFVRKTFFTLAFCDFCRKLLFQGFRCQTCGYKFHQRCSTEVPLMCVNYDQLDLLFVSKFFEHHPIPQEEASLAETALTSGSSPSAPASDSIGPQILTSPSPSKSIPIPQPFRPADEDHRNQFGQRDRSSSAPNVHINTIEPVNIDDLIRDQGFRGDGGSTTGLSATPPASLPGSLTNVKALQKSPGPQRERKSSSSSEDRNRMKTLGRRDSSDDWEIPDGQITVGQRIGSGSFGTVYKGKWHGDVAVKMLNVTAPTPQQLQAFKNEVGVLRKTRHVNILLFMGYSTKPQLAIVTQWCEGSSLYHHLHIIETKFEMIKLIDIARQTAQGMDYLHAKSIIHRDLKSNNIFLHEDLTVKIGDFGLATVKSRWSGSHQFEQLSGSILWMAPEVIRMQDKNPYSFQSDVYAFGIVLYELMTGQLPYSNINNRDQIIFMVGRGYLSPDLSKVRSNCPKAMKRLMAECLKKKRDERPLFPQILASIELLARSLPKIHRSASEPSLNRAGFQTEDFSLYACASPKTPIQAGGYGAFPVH
T6 sequence (P45984 whole entry): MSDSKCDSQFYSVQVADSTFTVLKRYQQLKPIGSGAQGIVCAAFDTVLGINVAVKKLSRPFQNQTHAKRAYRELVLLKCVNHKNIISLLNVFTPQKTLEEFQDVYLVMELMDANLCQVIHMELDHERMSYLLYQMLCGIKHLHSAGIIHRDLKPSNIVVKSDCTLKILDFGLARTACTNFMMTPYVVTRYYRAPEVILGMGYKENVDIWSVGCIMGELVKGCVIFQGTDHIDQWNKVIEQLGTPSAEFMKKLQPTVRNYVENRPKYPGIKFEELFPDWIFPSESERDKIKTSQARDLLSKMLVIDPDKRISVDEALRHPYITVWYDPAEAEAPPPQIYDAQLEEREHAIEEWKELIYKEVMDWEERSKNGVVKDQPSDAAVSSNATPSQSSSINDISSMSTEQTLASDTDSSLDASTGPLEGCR
T7 sequence (P15056 with tags, fused parts or gaps V600E): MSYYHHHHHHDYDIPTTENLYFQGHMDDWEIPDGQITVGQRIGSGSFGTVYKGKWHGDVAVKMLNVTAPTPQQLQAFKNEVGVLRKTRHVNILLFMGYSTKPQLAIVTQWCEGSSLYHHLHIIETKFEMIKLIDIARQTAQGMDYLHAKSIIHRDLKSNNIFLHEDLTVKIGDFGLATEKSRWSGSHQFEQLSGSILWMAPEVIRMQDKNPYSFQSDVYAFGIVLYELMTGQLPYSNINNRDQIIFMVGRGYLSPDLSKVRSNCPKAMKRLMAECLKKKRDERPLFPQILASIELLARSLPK
T5 sequence (P53779 whole entry): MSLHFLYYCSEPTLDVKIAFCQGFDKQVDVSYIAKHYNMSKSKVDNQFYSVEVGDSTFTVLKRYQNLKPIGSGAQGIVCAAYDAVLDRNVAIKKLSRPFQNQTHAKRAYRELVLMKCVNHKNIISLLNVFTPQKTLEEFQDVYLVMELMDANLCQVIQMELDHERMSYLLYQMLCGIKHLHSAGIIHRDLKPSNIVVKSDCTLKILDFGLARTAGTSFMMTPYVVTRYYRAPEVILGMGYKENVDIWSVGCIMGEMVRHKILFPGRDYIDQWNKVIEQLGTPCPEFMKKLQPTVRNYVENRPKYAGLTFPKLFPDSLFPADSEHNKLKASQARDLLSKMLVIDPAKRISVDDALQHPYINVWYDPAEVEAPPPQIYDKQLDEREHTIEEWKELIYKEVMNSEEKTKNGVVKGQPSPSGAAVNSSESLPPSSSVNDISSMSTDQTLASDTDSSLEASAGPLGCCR
T3 sequence (P45983 whole entry): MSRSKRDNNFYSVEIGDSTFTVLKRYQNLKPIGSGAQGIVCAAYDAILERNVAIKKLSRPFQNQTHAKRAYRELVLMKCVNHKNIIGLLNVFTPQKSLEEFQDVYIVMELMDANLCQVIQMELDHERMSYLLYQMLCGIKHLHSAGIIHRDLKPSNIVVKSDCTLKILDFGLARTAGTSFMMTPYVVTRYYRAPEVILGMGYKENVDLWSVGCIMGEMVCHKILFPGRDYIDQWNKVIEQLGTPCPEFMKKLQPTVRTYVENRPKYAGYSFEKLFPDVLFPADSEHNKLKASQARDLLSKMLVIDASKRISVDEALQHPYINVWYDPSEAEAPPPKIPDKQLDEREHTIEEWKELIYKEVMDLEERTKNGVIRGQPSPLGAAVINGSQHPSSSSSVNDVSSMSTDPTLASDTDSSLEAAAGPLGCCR
T2 sequence (P10721 with tags, fused parts or gaps): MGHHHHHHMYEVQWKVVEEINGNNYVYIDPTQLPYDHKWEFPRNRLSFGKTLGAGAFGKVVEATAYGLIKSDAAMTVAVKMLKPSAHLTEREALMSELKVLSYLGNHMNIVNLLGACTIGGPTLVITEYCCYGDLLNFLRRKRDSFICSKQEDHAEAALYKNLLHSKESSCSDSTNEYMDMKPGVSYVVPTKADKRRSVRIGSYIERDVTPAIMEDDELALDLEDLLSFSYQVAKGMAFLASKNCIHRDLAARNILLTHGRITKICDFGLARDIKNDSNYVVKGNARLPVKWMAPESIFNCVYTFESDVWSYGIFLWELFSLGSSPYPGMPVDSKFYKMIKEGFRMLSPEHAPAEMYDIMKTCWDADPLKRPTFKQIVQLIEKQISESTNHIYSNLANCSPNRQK
T8 sequence (P11362 458-765 C488A/C584S): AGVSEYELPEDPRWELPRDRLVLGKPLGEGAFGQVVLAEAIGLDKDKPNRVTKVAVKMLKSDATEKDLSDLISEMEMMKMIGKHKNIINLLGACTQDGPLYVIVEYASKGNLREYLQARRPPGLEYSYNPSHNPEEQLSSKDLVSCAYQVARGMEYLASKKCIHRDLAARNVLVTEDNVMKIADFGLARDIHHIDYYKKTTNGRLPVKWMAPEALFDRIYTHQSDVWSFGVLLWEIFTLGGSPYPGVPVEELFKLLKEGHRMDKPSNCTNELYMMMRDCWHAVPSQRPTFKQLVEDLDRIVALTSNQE

CCCS(=O)(=O)Nc1ccc(F)c(C(=O)c2c[nH]c3ncc(-c4ccc(C(=O)N5CCOCC5)cc4)cc23)c1F [Compound P-1548, Propane-1-sulfonic acid (2,4-difluoro-3-{5-[4-(morpholine-4-carbonyl)-phenyl]-1H-pyrrolo[2,3]-pyridine-3-carbonyl}-phenyl)-amide]
≤ 10 µM: all assays above

O=C(NCc1ccccc1)Nc1cccc(C(=O)c2c[nH]c3ncc(-c4cccnc4)cc23)c1 [Compound P-1554, 1-Benzyl-3-[3-(5-pyridin-3-yl-1H-pyrrolo[2,3-b]pyridine-3-carbonyl)-phenyl]-urea]
≤ 10 µM: all assays above

COCCNC(=O)Nc1cccc(C(=O)c2c[nH]c3ncc(-c4cccnc4)cc23)c1 [Compound P-1566, 1-(2-Methoxy-ethyl)-3-[3-(5-pyridin-3-yl-1H-pyrrolo[2,3-b]pyridine-3-carbonyl)-phenyl]-urea]
not listed: FGFR1
≤ 10 µM: all other assays above

CCCCNC(=O)Nc1ccc(F)c(C(=O)c2c[nH]c3ncc(OC)cc23)c1F [Compound P-1567, 1-Butyl-3-[2,4-difluoro-3-(5-methoxy-1H-pyrrolo[2,3-b]pyridine-3-carbonyl)-phenyl]-urea]
not listed: FGFR1
≤ 10 µM: all other assays above

CCCCNC(=O)n1ccc2c(C(=O)c3c[nH]c4ncc(-c5ccccc5)cc34)cccc21 [Compound P-1576, 4-(5-Phenyl-1H-pyrrolo[2,3-b]pyridine-3-carbonyl)-indole-1-carboxylic acid butylamide]
not listed: FGFR1
≤ 10 µM: all other assays above

NC(=O)Nc1ccc(F)c(C(=O)c2c[nH]c3ncc(-c4ccccc4)cc23)c1 [Compound P-1589, [4-Fluoro-3-(5-phenyl-1H-pyrrolo[2,3-b]pyridine-3-carbonyl)-phenyl]-urea]
not listed: Kit
≤ 10 µM: all other assays above

CCCCNC(=O)Nc1ccc(F)c(C(=O)c2c[nH]c3ncc(-c4cccc(C(N)=O)c4)cc23)c1 [Compound P-1621, 3-{3-[5-(3-Butyl-ureido)-2-fluoro-benzoyl]-1H-pyrrolo[2,3-b]pyridin-5-yl}-benzamide]
not listed: Kit
≤ 10 µM: all other assays above
